Source: patent US20230391776A1, “AMIDE OXAZOLE COMPOUND” (MEDSHINE DISCOVERY INC., priority 2020, published 2023)

How the values were obtained:
human IRAK4 = biological target: T1, human IRAK4 (Homo sapiens, UniProt Q9NWZ3); assay: In vitro IRAK4 kinase activity, 33P isotope-labeled kinase assay; format: biochemical
T1 construct: purchased Reaction Biology Corp
T1 sequence (Q9NWZ3 1-460): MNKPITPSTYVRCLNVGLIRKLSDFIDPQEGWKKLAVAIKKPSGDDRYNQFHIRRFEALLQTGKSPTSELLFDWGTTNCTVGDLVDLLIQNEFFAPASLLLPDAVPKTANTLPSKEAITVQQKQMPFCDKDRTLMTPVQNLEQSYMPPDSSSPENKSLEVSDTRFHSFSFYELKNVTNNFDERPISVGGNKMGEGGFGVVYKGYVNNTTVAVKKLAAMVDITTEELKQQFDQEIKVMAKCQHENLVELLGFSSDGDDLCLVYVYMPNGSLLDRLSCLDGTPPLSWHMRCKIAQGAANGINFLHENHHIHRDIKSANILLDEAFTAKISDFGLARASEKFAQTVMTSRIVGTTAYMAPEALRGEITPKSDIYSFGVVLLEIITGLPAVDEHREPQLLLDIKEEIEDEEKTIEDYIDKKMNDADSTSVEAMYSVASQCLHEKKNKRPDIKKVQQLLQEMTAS
Protocol: The IC50 values were determined using ^33P isotope-labeled kinase activity assay (Reaction Biology Corp) to evaluate the inhibitory ability of the tested compounds on human IRAK4.
(§1) Buffer conditions: 20 mM Hepes (pH 7.5), 10 mM MgCl2, 1 mM EGTA, 0.02% Brij35, 0.02 mg/mL BSA, 0.1 mM Na3VO4, 2 mM DTT, 1% DMSO.
Test procedure: At room temperature, the tested compound was dissolved in DMSO and a 10 mM solution was prepared for use. The substrate was dissolved in a newly prepared buffer solution, and the tested IRAK4 kinase was added thereto and mixed evenly. The DMSO solution dissolved with the tested compound was added to the above mixed evenly reaction solution using acoustic technique (Echo 550). After incubation for 15 minutes, ^33P-ATP was added to initiate the reaction. The reaction was carried out at room temperature for 120 minutes, and the reaction mixture was dropped on P81 ion exchange filter paper (Whatman #3698-915). The filter paper was washed repeatedly with 0.75% phosphoric acid solution, and the radioactivity of phosphorylated substrate residues on the filter paper was determined. The kinase activity data were expressed by comparing the kinase activity of the group containing the tested compound with the kinase activity of the blank group (only containing DMSO), and the IC50 value was obtained by curve fitting by Prism4 software (GraphPad), the experimental results were shown in Table 2.

human BTK = biological target: T2, human BTK (Homo sapiens, UniProt Q06187); assay: In vitro BTK kinase activity, 33P isotope-labeled kinase assay; format: biochemical
T2 construct: purchased Reaction Biology Corp
T2 sequence (Q06187 whole entry): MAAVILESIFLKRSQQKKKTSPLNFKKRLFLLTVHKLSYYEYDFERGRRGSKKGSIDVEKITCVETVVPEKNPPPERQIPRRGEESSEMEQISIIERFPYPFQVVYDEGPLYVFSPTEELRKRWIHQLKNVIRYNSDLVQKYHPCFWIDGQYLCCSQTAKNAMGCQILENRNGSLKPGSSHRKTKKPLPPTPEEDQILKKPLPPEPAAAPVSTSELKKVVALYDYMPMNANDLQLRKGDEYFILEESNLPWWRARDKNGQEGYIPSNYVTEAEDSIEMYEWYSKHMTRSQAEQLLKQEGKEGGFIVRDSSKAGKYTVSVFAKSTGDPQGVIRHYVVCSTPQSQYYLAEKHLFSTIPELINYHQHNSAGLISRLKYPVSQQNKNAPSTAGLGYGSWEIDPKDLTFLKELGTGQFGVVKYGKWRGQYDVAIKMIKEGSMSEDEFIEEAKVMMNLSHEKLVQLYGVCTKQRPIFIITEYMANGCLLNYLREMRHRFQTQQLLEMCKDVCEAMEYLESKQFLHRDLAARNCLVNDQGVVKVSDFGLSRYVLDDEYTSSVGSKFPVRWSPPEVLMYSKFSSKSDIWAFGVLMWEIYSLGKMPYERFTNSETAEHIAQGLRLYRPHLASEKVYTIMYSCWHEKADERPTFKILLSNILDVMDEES
Protocol: The IC50 values were determined using ^33P isotope-labeled kinase activity assay (Reaction Biology Corp) to evaluate the inhibitory ability of the tested compounds on human BTK.
as §1
Test procedure: At room temperature, the tested compound was dissolved in DMSO and a 10 mM solution was prepared for use. The substrate was dissolved in a newly prepared buffer solution, and the BTK kinase was added thereto and mixed evenly. The compound dissolved in DMSO was added to the kinase reaction mixture through Echo 550 (Acoustic technology; Nanoliter range). After incubation for 20 minutes at room temperature, ^33P-ATP was added to initiate the reaction. The reaction was carried out at room temperature for 2 hours, and the radioactivity of the reaction solution drop was detected by filtration-binding method with P81 ion exchange filter paper. The kinase activity data were expressed by comparing the kinase activity of the group containing the tested compound with the kinase activity of the blank group (only containing DMSO), and the IC50 value was obtained by curve fitting by Prism4 software (GraphPad), the experimental results were shown in Table 3.

[1] = tested on: TNF-α production in THP-1 cells; assay: TNF-α ELISA in LPS-stimulated THP-1 cells; format: cell-based; details: Homo sapiens, TNF-α in supernatant, 150 ng/mL LPS, 18 hours
Protocol: THP-1 human acute single cell leukemia cells were purchased from ATCC (Cat #TIB-202) and cultured at 37° C. in 5% CO2 incubator. The composition of medium was RPMI1640 (Gibco, Cat #22400-105), and the supplementary compositions were 10% FBS (Gibco, Cat #10091148); 1% PenStrep (Gibco, Cat #15140); 0.05 mM β-mercaptoethanol (Sigma, Cat #M6250).
TNF-α Elisa kit was used to detect the content of TNF-α in cell culture supernatant samples. TNF-α was produced by stimulating THP-1 cells with 150 ng/mL LPS (Sigma, Cat #L6529).
THP-1 cells cultured normally at logarithmic growth period were seeded in a 96-well plate (Corning #3599) at a certain concentration (1*10^5/100 μL) and then put into a cell incubator for incubation. After two hours, 16.7 μL of different concentrations of the compound to be tested (8*final concentration) were added and incubated in an incubator. After one hour, 16.7 μL of 1200 ng/mL LPS was added and incubated in an incubator. After 18 hours, the culture supernatant samples were collected by centrifugation, and the content of TNF-α could be detected by TNF-α Elisa kit. Finally, OD signals (OD450-OD570) were read on envision board reader.
The OD450-OD570 signal value was converted into a percentage inhibition rate.
Inhibition rate %=(ZPE−sample)/(ZPE−HPE)*100.
“HPE” referred to the OD450-OD570 signal value of the control well without LPS stimulated cells, and “ZPE” referred to the OD450-OD570 signal value of the control well with LPS stimulated cells. The IC50 value of the compound was calculated by XLFit in the excel add-in.
Y=Bottom+(Top−Bottom)/(1+(IC50/X)^HillSlope). Equation: […]

[2] = tested on: OCI-LY10 human diffuse large B lymphoma cells; assay: OCI-LY10 cell proliferation (Cell Titer Glo); format: cell-based; details: 72 hours
Protocol: (§2) The tumor cell lines OCI-LY10 and TMD-8 were used to detect the effect of the compound of the disclosure on inhibiting tumor cell proliferation in vitro.
OCI-LY10 human diffuse large B lymphoma cells, from Nanjing Cobioer Biotechnology Co., Ltd
(§3) The compound was diluted with DMSO to a final concentration of 10 mM. The compound was freshly prepared and ready for use.
(§4) a) Logarithmic growth period cells were collected, counted, resuspended with complete culture medium, the cell concentration was adjusted to an appropriate concentration (determined according to the results of cell density optimization test), inoculated on 96-well plates, and 100 μL of cell suspension was added to each well. Cells were incubated in an incubator with 37° C., 100% relative humidity and 5% CO2 for 24 hours.
(§5) b) The compound to be tested was diluted to 50 μM with culture medium and then gradient diluted for 8 times. Cells were added with 25 μL/well. The final concentrations of the compound were from […], 3-fold gradient dilution, with a total of 9 concentration points.
(§6) c) Cells were incubated in an incubator with 37° C., 100% relative humidity and 5% CO2 for 72 hours;
(§7) d) 60 μL of CTG test reagent was added to the culture medium.
(§8) e) Shaked fully and reacted in the dark for 10 min. Luminescence was measured on ENVISION and the inhibition rate was calculated.
(§9) Cell growth inhibition rate %=[(RLUv−RLUs)/(RLUv−RLUb)]×100%

[3] = tested on: TMD-8 human diffuse large B lymphoma cells; assay: TMD-8 cell proliferation (Cell Titer Glo); format: cell-based; details: TMD8, 72 hours
Protocol: as §2
TMD-8 human diffuse large B lymphoma cells, from Nanjing Cobioer Biotechnology Co., Ltd
as §3, §4, §5, §6, §7, §8, §9

OCI-LY3 cell line = assay: OCI-LY3 cell proliferation (CTG); format: cell-based; details: Homo sapiens, 72 hours
Protocol: The tumor cell line OCI-LY3 was used to detect the effect of the compound of the disclosure on inhibiting tumor cell proliferation in vitro.
The tumor cell line used in this experiment was provided by Nanjing Cobioer Biotechnology Co., Ltd. See Table 6 below for specific information.
The OCI-LY3 cell line was cultured in the corresponding medium at 37° C. and 5% CO2, and the logarithmic growth period cells were used for experimental planking. The cells were collected and centrifuged at 800 rpm for 5 minutes, and the culture medium was re-suspended and spread in a 96-well plate. After being cultured overnight in 37° C., 5% CO2 incubator, drugs with different concentration gradients (10 μL of prepared diluent of test compound was added) were added, and incubated in 37° C., 5% CO2 incubator for 72 hours. The cell culture plate was incubated with CTG reagent at room temperature in the dark for 30 minutes and return to room temperature. CTG solution was added into the biosafety cabinet in the dark 100 μL/well, and was shaken and mixed evenly on plate shaker in the dark for 2 minutes, and incubated at room temperature in the dark for 10 minutes. The luminous value was read and recorded with Perkin Elmer Envision instrument.
The luminous value of the blank control group was subtracted from the luminous value measured at each drug concentration, the ratio of this value to DMSO group was taken as the cell inhibition rate (%). GraphPad software was used, the logarithm of drug concentration (log drug concentration) versus inhibition rate was plotted, and the IC50 value and 95% confidence value were automatically fitted and calculated by log (inhibitor) vs. response-variable slop (four parameters) algorithm of nonlinear regression by software.

[4] = tested on: human diffuse large B lymphoma TMD8 cell subcutaneous xenograft; assay: TMD8 subcutaneous xenograft tumor model (WX009 study); format: in vivo, SCID mouse; details: 20 mg/kg QD PO, 18th day after administration
Description: The formula for calculating the tumor inhibition rate TGI (%)=[1−(average tumor volume at the end of administration in a treatment group-average tumor volume at the beginning of administration in the treatment group))/(average tumor volume at the end of treatment in solvent control group-average tumor volume at the beginning of treatment in solvent control group)]×100%.

[5] = tested on: human diffuse large B lymphoma TMD8 cell subcutaneous xenograft; assay: TMD8 subcutaneous xenograft tumor model (WX017 and WX027 study); details: 20 mg/kg QD PO, 11th day after administration
Protocol: a) TMD8 cells were cultured in RPMI-1640 medium containing 10% FBS and maintained in a 37° C. saturated humidity incubator with 5% CO2. TMD8 cells in logarithmic period were collected, resuspended in RPMI-1640 basal medium, and Matrigel was added at 1:1, and the cell concentration was adjusted to 4×10^7/mL. Under aseptic conditions, 0.1 mL of cell suspension was inoculated under the skin of the right back of SCID mice, and the inoculation concentration was 4×10^6/0.1 mL/mouse.
When the tumor grew to a certain size, the animals with too large, too small or irregular tumor shape were excluded, and the animals with tumor volume of 108.76-188.11 mm^3 were selected. According to the tumor volume, the animals were divided into 10 groups by random block method, with 6 mice in each group, and the average tumor volume was about 152.11 mm^3. The health status and death of animals were monitored every day, and routine examinations included observing the effects of tumor growth and drug treatment on daily behaviors of animals, such as behavioral activities, food intake and water intake, weight change (weight was measured twice a week), tumor size (tumor volume was measured twice a week), appearance signs or other abnormal conditions.
The formula for calculating tumor volume (TV) was: 1/2×a×b^2, where a and b were the measured length and width of the tumor respectively. The formula for calculating the tumor inhibition rate TGI (%)=[1−(average tumor volume at the end of administration in a treatment group-average tumor volume at the beginning of administration in the treatment group))/(average tumor volume at the end of treatment in solvent control group-average tumor volume at the beginning of treatment in solvent control group)]×100%.
In this study, the experimental data were all expressed by Mean±SEM. Statistical analysis was based on the data of RTV at the end of the experiment and analyzed by IBM SPSS Statistics software. T test was used to analyze the comparison between two groups, and one-way ANOVA was used to analyze the comparison between three or more groups. If the variance was even (there was no significant difference in F value), Tukey's method was used to analyze it, and if the variance was uneven (there was significant difference in F value), Games-Howell method was used to test it. p<0.05 was deemed to a significant difference.

Row | IC50 (human IRAK4) | IC50 (human BTK) | IC50 [1] | IC50 [2] | IC50 [3] | IC50 (OCI-LY3 cell line) | Structure (SMILES) | TGI [4] | TGI ([4]; listed as Ibrahim) | TGI [5]
1 | 1.8 nM | 2.9 nM | 6 nM | 8 nM | 20 nM | 34 nM | CS(=O)(=O)CCc1cn2cc(NC(=O)c3coc(-c4ccnc(N)c4)n3)c(-c3ccccc3)cc2n1 [WX013] |  |  | 
2 |  |  |  |  |  |  | C=CC(=O)N1CCC[C@@H](n2nc(-c3ccc(Oc4ccccc4)cc3)c3c(N)ncnc32)C1 [ibrutinib, reference compound] | 12.95% | 13% | 39%
